How the values were obtained:
HDAC3 (h) = HDAC3 (h) (Homo sapiens, UniProt O15379); assay: Epigenetic enzyme assay, Histone deacetylase (HDACs); format: biochemical; conditions: read-out: % Inhibition of Control Values
WHSC1(h) (NSD2(h)) = biological target: T1, WHSC1(h) (NSD2(h)) (Homo sapiens, UniProt O96028); assay: Epigenetic enzyme assay, Methyltransferases (MTs); format: biochemical; conditions: 10 μM; read-out: % Inhibition of Control Values
T1 sequence (O96028 1-1365): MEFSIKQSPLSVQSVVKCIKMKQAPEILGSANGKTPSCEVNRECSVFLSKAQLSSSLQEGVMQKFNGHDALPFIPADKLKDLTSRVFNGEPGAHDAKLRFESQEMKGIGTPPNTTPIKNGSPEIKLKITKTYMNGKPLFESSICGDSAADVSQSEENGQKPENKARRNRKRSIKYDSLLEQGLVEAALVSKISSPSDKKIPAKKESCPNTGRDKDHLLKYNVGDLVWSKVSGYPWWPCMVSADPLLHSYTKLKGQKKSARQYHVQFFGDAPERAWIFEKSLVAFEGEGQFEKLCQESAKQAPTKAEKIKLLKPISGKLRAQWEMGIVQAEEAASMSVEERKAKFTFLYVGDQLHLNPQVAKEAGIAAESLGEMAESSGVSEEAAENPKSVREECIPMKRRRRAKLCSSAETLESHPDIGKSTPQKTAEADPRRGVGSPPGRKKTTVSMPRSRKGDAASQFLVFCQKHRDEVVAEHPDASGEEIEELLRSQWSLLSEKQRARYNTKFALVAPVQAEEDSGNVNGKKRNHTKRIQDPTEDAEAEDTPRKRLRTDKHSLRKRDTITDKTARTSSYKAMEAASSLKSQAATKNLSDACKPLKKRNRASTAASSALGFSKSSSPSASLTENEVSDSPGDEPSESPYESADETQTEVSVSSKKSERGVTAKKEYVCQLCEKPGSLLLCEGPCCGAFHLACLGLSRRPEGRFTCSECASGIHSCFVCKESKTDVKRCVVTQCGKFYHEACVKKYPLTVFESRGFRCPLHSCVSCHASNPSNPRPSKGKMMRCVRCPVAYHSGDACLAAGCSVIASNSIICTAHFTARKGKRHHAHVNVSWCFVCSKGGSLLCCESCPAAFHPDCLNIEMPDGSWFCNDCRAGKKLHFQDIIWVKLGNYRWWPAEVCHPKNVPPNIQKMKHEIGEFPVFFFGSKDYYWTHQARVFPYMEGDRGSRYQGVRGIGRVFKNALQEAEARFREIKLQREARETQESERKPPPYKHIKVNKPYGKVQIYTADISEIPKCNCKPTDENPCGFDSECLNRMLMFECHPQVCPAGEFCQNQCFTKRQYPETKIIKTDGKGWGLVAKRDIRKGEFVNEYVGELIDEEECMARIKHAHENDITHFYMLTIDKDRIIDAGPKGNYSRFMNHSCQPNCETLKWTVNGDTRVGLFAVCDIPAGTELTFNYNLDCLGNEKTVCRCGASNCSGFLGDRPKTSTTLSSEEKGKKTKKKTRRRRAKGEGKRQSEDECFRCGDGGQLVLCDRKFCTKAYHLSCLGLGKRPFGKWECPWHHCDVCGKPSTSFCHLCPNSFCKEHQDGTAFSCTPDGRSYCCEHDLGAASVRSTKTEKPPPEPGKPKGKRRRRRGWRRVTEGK

[1] = test system: 43 cancer cell lines and one normal cell line; assay: In vitro cell viability assay (intracellular ATP, 72 hour); format: cell-based; conditions: 10 μM
[2] = biological target: PKBgamma/AKT3(h) (substrate histone H3 full length) (Homo sapiens, UniProt Q9Y243); assay: Epigenetic enzyme assay, Kinases; format: biochemical; conditions: read-out: % Inhibition of Control Values
JMJD2E (h) = biological target: T2, JMJD2E (h) (Homo sapiens, UniProt B2RXH2); assay: Epigenetic enzyme assay, Demethylases (KDMs); format: biochemical; conditions: 10 μM; read-out: % Inhibition of Control Values
T2 sequence (B2RXH2 1-506): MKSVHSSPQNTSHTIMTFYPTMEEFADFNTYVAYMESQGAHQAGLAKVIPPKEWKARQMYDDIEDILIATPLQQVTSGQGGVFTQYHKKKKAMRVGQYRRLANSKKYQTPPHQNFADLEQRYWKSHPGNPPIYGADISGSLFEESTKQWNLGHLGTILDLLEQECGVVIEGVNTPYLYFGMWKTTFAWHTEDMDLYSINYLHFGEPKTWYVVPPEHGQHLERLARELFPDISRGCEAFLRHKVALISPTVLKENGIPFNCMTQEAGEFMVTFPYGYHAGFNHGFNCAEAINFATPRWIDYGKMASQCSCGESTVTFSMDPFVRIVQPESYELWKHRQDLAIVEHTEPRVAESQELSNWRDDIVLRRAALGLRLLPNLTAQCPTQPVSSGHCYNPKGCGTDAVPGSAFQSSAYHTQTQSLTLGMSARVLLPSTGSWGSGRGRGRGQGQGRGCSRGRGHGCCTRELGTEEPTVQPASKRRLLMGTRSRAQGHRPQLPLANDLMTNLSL

HDAC2 (h) = HDAC2 (h) (Homo sapiens, UniProt Q92769); assay: Epigenetic enzyme assay, Histone deacetylase (HDACs); format: biochemical; conditions: read-out: % Inhibition of Control Values
EZH1/EED/SUZ12 (h) = EZH1/EED/SUZ12 (h) (Homo sapiens, UniProt Q92800); assay: Epigenetic enzyme assay, Methyltransferases (MTs); format: biochemical; conditions: read-out: % Inhibition of Control Values
[3] = LL/2 (Non-Small Cell Lung Cancer)
[4] = NCI-H460 (Non-Small Cell Lung Cancer)
[5] = PC-6 (Non-Small Cell Lung Cancer)

PKBgamma/AKT3(h) (substrate histone H3 full length), sequence (Q9Y243 whole entry): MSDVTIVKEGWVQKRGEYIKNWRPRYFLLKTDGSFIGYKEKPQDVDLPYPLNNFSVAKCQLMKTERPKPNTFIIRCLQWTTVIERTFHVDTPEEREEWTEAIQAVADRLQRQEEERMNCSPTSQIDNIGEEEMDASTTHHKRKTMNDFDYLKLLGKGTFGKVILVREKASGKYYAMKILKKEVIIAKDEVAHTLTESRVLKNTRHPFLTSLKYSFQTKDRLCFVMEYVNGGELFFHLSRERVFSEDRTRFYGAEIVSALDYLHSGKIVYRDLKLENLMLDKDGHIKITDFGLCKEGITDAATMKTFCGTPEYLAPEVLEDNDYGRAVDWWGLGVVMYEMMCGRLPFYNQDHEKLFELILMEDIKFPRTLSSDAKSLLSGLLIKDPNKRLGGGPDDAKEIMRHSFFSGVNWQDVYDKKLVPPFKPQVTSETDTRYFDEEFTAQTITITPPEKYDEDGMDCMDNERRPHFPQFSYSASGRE
HDAC2 (h), sequence (Q92769 whole entry): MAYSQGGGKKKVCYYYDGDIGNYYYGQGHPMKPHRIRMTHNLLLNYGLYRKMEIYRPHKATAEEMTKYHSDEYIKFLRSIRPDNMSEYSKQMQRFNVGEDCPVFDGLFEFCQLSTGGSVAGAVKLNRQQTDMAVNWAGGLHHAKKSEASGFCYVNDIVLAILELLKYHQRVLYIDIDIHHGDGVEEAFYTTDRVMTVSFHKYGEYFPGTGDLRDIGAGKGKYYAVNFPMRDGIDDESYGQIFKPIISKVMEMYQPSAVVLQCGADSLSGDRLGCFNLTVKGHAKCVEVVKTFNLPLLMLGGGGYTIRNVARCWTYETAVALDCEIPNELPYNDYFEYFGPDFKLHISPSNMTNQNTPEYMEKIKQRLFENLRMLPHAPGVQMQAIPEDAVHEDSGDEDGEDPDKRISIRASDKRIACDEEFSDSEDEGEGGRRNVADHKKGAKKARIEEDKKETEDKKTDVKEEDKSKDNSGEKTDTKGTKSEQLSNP
HDAC3 (h), sequence (O15379 whole entry): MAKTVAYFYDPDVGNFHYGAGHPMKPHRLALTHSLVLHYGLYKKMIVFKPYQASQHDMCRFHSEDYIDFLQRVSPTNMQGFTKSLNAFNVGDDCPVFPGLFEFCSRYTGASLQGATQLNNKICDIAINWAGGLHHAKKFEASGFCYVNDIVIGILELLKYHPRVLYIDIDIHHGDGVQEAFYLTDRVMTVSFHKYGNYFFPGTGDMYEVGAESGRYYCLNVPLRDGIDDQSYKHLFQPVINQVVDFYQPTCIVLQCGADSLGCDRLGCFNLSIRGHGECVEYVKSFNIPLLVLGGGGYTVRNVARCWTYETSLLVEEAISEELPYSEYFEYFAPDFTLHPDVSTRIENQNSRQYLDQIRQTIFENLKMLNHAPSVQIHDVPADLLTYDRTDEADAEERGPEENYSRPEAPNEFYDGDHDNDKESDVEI
HDAC3 (h), sequence (Q9Y618 395-489 partner limits assumed): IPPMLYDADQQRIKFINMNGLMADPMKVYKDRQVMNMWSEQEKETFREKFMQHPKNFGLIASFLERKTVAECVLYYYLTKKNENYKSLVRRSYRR
EZH1/EED/SUZ12 (h), sequence (Q92800 whole entry): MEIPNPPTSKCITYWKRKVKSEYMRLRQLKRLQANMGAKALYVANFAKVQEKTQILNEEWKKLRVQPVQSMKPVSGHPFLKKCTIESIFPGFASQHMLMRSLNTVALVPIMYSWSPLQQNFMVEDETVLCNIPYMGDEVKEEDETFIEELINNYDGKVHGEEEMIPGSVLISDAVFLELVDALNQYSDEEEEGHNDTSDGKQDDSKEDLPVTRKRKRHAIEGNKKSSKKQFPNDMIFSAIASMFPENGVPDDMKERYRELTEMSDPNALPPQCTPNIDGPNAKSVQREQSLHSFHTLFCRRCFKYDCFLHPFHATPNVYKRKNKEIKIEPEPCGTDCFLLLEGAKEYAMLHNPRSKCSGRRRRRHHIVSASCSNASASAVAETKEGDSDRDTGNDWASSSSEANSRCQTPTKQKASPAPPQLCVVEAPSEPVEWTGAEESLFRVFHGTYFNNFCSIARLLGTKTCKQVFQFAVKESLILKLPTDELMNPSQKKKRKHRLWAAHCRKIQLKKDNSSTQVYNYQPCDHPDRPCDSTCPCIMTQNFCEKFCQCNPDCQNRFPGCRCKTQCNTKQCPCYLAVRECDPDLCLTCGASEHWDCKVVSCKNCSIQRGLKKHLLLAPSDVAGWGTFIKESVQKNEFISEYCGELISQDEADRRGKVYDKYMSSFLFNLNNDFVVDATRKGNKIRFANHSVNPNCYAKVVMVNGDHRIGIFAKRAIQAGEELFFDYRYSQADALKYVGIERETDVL
EZH1/EED/SUZ12 (h), sequence (O75530 whole entry partner): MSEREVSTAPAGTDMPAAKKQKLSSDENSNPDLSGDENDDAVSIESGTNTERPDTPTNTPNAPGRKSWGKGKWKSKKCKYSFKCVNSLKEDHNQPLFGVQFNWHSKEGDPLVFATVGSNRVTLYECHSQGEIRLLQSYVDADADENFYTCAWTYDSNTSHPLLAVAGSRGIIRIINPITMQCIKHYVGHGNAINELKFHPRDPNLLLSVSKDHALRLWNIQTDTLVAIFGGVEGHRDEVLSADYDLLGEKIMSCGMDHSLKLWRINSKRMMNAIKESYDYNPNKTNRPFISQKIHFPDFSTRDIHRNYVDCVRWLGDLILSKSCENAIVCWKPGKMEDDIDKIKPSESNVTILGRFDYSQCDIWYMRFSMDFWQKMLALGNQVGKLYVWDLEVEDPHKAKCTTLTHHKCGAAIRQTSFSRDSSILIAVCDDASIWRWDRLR
EZH1/EED/SUZ12 (h), sequence (Q15022 whole entry partner): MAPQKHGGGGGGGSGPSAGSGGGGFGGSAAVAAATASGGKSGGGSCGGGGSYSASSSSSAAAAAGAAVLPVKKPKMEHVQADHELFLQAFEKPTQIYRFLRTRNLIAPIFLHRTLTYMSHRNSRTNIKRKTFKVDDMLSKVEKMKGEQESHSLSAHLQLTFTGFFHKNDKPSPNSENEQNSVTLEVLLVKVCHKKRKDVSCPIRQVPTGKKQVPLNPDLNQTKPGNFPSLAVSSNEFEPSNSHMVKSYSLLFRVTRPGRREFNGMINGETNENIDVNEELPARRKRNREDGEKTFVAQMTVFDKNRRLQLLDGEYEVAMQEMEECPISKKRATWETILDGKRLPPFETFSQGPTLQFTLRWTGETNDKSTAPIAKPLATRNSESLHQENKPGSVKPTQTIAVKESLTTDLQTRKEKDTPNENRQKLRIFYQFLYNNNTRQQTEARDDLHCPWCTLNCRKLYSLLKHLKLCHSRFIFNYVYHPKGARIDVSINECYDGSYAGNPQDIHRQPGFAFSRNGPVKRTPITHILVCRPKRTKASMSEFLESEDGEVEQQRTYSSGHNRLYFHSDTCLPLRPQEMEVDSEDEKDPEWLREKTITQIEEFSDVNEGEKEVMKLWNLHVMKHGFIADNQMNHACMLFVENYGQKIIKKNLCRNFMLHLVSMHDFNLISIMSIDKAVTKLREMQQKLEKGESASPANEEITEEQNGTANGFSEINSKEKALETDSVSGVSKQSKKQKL

Structure (SMILES): CC(C)=CCC[C@@H]1C(O)Oc2c(C)cc(O)c3c2[C@H]1CC[C@H]3C (stereo partly drawn) [Compound 2, 5,18-epoxyserrulat-14-en-8,18-diol]
- inhibition at 10 µM (HDAC3 (h)): 1%
- inhibition at 10 µM (WHSC1(h) (NSD2(h))): 14%
- effect on cell viability ([1]; remaining cell lines (other than HL-60)): no significant effect
- % Cell growth ([1]; 4T1 (Breast Cancer)): 60%
- % Cell growth ([1]; A375 (Skin)): 74%
- % Cell growth ([1]; A-431 (Skin)): 100%
- % Cell growth ([1]; A-498 (Kidney Cancer)): 91%
- % Cell growth ([1]; ACHN (Kidney Cancer)): 101%
- % Cell growth ([1]; B16-F0 (Melanoma)): 123%
- % Cell growth ([1]; BT474 (Breast Cancer)): 118%
- % Cell growth ([1]; CT26.WT (Colon Cancer)): 120%
- % Cell growth ([1]; DLD-1 (Colon Cancer)): 95%
- % Cell growth ([1]; H33HJ-JA1 (Lymphoma)): 57%
- % Cell growth ([1]; HC-4 (Liver Cancer)): 104%
- % Cell growth ([1]; HCT-15 (Colon Cancer)): 94%
- % Cell growth ([1]; HCT-116 (Colon Cancer)): 81%
- % Cell growth ([1]; HT-29 (Colon Cancer)): 107%
- % Cell growth ([1]; Hep3B (Liver Cancer)): 87%
- % Cell growth ([1]; HepG2 (Liver Cancer)): 95%
- % Cell growth ([1]; K-562 (Leukemia)): 69%
- % Cell growth ([1]; KATO III (Stomach)): 84%
- % Cell growth [1, 3]: 105%
- % Cell growth ([1]; LNCaP (Prostrate Cancer)): 73%
- % Cell growth ([1]; MCF7 (Breast Cancer)): 114%
- % Cell growth ([1]; MCF-7 AdrR (Breast Cancer)): 92%
- % Cell growth ([1]; MDA-MB-231 (Breast Cancer)): 97%
- % Cell growth ([1]; MDA-MB-468 (Breast Cancer)): 37%
- % Cell growth ([1]; MES-SA (Uterus)): 75%
- % Cell growth ([1]; MIA PaCa-2 (Pancreas)): 92%
- % Cell growth ([1]; MOLT-4 (Leukemia)): 38%
- % Cell growth ([1]; MV-411 (Leukemia)): 37%
- % Cell growth [1, 4]: 88%
- % Cell growth ([1]; OVCAR-3 (Ovarian Cancer)): 67%
- % Cell growth ([1]; PANC-1 (Pancreas)): 87%
- % Cell growth ([1]; PC-3 (Prostrate Cancer)): 99%
- % Cell growth [1, 5]: 92%
- % Cell growth ([1]; Ramos (Lymphoma)): 33%
- % Cell growth ([1]; SK-MEL-5 (Melanoma)): 95%
- % Cell growth ([1]; SK-N-MC (Brain)): 73%
- % Cell growth ([1]; SK-OV-3 (Ovarian Cancer)): 82%
- % Cell growth ([1]; SW-620 (Colon Cancer)): 97%
- % Cell growth ([1]; T-47D (Breast Cancer)): 104%
- % Cell growth ([1]; U937 (Lymphoma)): 102%
- % Cell growth ([1]; U-87 MG (Brain)): 101%
- inhibition at 10 µM [2]: -7%
- inhibition at 10 µM (JMJD2E (h)): 10%
- inhibition at 10 µM (HDAC2 (h)): 0%
- inhibition at 10 µM (EZH1/EED/SUZ12 (h)): 3%

Structure (SMILES): CC(C)=CCC[C@H](C)[C@@H]1CC[C@@H](C)c2c1cc(C)c(O)c2O [Compound 4, 7,8-dihydroxyserrulat-14-ene]
- reduction in cell viability ([1]; Ramos, H33HJ-JA1, HL-60 (TB), MOLT-4, MV-411, SK-N-MC): −82 to −94%
- % Cell growth ([1]; 4T1 (Breast Cancer)): 26%
- % Cell growth ([1]; A375 (Skin)): 65%
- % Cell growth ([1]; A549/ATCC (Non-Small Cell Lung Cancer)): 93%
- % Cell growth ([1]; A-431 (Skin)): 107%
- % Cell growth ([1]; A-498 (Kidney Cancer)): 89%
- % Cell growth ([1]; ACHN (Kidney Cancer)): 105%
- % Cell growth ([1]; B16-F0 (Melanoma)): 56%
- % Cell growth ([1]; BT474 (Breast Cancer)): 64%
- % Cell growth ([1]; CT26.WT (Colon Cancer)): 33%
- % Cell growth ([1]; DLD-1 (Colon Cancer)): 68%
- % Cell growth ([1]; H33HJ-JA1 (Lymphoma)): −87%
- % Cell growth ([1]; HC-4 (Liver Cancer)): 91%
- % Cell growth ([1]; HCT-15 (Colon Cancer)): 69%
- % Cell growth ([1]; HCT-116 (Colon Cancer)): 64%
- % Cell growth ([1]; HT-29 (Colon Cancer)): 91%
- % Cell growth ([1]; Hep3B (Liver Cancer)): 93%
- % Cell growth ([1]; HepG2 (Liver Cancer)): 90%
- % Cell growth ([1]; K-562 (Leukemia)): 60%
- % Cell growth ([1]; KATO III (Stomach)): 83%
- % Cell growth [1, 3]: 98%
- % Cell growth ([1]; LNCaP (Prostrate Cancer)): 56%
- % Cell growth ([1]; MCF7 (Breast Cancer)): 77%
- % Cell growth ([1]; MCF-7 AdrR (Breast Cancer)): 77%
- % Cell growth ([1]; MDA-MB-231 (Breast Cancer)): 84%
- % Cell growth ([1]; MDA-MB-468 (Breast Cancer)): 52%
- % Cell growth ([1]; MES-SA (Uterus)): 68%
- % Cell growth ([1]; MIA PaCa-2 (Pancreas)): 92%
- % Cell growth ([1]; MOLT-4 (Leukemia)): −93%
- % Cell growth ([1]; MV-411 (Leukemia)): −94%
- % Cell growth [1, 4]: 93%
- % Cell growth ([1]; OVCAR-3 (Ovarian Cancer)): 60%
- % Cell growth ([1]; PANC-1 (Pancreas)): 82%
- % Cell growth [1, 5]: 4%
- % Cell growth ([1]; Ramos (Lymphoma)): −82%
- % Cell growth ([1]; SK-MEL-5 (Melanoma)): 88%
- % Cell growth ([1]; SK-N-MC (Brain)): −92%
- % Cell growth ([1]; SK-OV-3 (Ovarian Cancer)): 74%
- % Cell growth ([1]; SW-620 (Colon Cancer)): 74%
- % Cell growth ([1]; T-47D (Breast Cancer)): 47%
- % Cell growth ([1]; U937 (Lymphoma)): 20%
- % Cell growth ([1]; U-87 MG (Brain)): 81%
